Measured values: PubChem BioAssay (NCI)
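Cultured in 96-well plates, cells were exposed to test compound for 48 hours across five concentrations. TGI denotes the concentration required for complete inhibition of growth.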 Where a SMILES comes first, the peptide text is derived from it. The star is where a group is joined. Cbz = O=C(OCc1ccccc1)*; NHNH2 = NN*

Columns and labels:
Assay in all cases: growth of human tumour cells (NCI), 48 h
OVCAR-8 ovarian = tested on: OVCAR-8 ovarian
NCI-H522 lung = tested on: NCI-H522 lung
RPMI-8226 leukemia = tested on: RPMI-8226 leukemia
UACC-257 melanoma = tested on: UACC-257 melanoma
786-0 renal = tested on: 786-0 renal
U251 CNS = tested on: U251 CNS
SF-295 CNS = tested on: SF-295 CNS
SK-MEL-2 melanoma = tested on: SK-MEL-2 melanoma
SNB-75 CNS = tested on: SNB-75 CNS
SR leukemia = tested on: SR leukemia

Compound	TGI (OVCAR-8 ovarian) [µM]	TGI (NCI-H522 lung) [µM]	TGI (RPMI-8226 leukemia) [µM]	TGI (UACC-257 melanoma) [µM]	TGI (786-0 renal) [µM]	TGI (U251 CNS) [µM]	TGI (SF-295 CNS) [µM]	TGI (SK-MEL-2 melanoma) [µM]	TGI (SNB-75 CNS) [µM]	TGI (SR leukemia) [µM]
CC1(C(=O)O)CCCC1C(=O)O (stereo unspecified)	> 100	> 100	> 100	> 100	> 100	> 100	> 100	> 100		
O=C1C=C(c2ccccc2)O/C1=C/C(=O)c1ccc(Cl)cc1	74.8	27.7	25.9	35.6	29.9	29.1			23.6	
Cn1c([O-])nc(-n2cc[n+](C)c2)cc1=O			> 100	> 100	> 100	> 100		> 100		> 100
O=C1C=CC(=O)c2c(O)c(NCCc3ccc(O)cc3)c(Cl)c(O)c21	> 10	> 10	> 10	> 10	> 10	> 10	> 10	> 10	> 10	
CC1(CNCc2ccccc2)CC(CCc2ccccc2)N(C(=O)c2ccc([N+](=O)[O-])cc2)C1Cc1ccc(O)cc1 (stereo unspecified)	32	22.3	> 100	27	25.9	26.2	25.6	32.7		> 100
Nc1ccc2[nH]c(-c3cccc(Cl)c3)cc(=O)c2c1	> 100	6.87		> 100	> 100	70.4			> 100	
CC(=S)N=Cc1c(O)cc(C)oc1=O	> 100	> 100	> 100	> 100	> 100	> 100	> 100	> 100	> 100	
O=c1oc2cc(O)ccc2c(O)c1C(c1ccc(C(c2c(O)c3ccc(O)cc3oc2=O)c2c(O)c3ccc(O)cc3oc2=O)cc1)c1c(O)c2ccc(O)cc2oc1=O	> 100			> 100		> 100	> 100	> 100	> 100	> 100
O=C(N/N=C/c1cc(Br)cc(Br)c1[O-])c1ccccc1O.O=C(N/N=C/c1cc(Br)cc(Br)c1[O-])c1ccccc1O.[Fe+2]	36.1	11.4				7.88	15.8	21.4	27.7	
Cc1nc(C)c(Cc2ccccc2)o1	> 100	> 100		> 100	> 100	> 100	> 100		> 100	
C=c1c(OC)c(OC)c(O)c2c1=c1cc([N+](=O)[O-])cc(OC)c1=N2	> 100	> 100	> 100	> 100	> 100	> 100	> 100	> 100	> 100	
CCC(C)C(=O)OC1CC2(C)C(c3ccoc3)OC(=O)CC23OC2(C)OC34C(OC(=O)C(C)C)C3(O)C(OC(=O)C5(C)OC5C)C5(C)CC3(O)C(C)(C5CC(=O)OC)C14O2 (stereo unspecified)	> 100	> 100		> 100	> 100	> 100	> 100	> 100	> 100	95
O=C(O)C(CS)N=c1c2ccccc2n(O)c2ccccc12 (stereo unspecified)	> 100	> 100	> 100	> 100	> 100	> 100	> 100	> 100	> 100	
COC(=O)C1=Nc2c(C)nn(-c3ccccc3)c2N=C(c2ccc([N+](=O)[O-])cc2)C1	> 10	> 10	> 10	> 10	> 10	> 10	> 10		> 10	> 10
Brc1ccc2c(-c3csc(-c4c[nH]c5cc(Br)ccc45)n3)c[nH]c2c1	> 57.1		> 100	> 100	> 67.3	32.1	45.5	> 100	66.1	> 41
NC(N)=Nc1ncccc1[N+](=O)[O-]	> 100	> 100	> 100	> 31.6		> 31.6	> 100	> 100	> 100	
CCOC(=O)C1=C(OC(OCC)C(CC)[Se]c2ccccc2)CCCC1 (stereo unspecified)	42.1	28.4	39.3	> 100	28.9	31	55.6	43	54.8	
Cc1cn(C(C)OCCN2C(=O)c3ccccc3C2=O)c(=O)[nH]c1=O (stereo unspecified)	> 100		> 100	> 100	> 100	> 100	> 100	> 100	> 100	> 100
COc1ccc(-c2c(C#N)c(N)nc3c2CCS(=O)(=O)c2ccccc2-3)cc1	> 100	> 100		> 100	> 100	> 100		> 100	> 100	> 100
O=C(O)C(CO)NC(=O)n1c2ccccc2c2ccccc21 (stereo unspecified)	> 100	> 100	> 100	> 100	> 100		> 100	> 100		> 100
COC(=O)CC(NC(=O)OCc1ccccc1)C(=O)NC(CC(=O)OC)C(=O)NC(CC(=O)OC)C(=O)NC(CC(=O)OC)C(=O)NC(CC(=O)OC)C(=O)NC(CC(=O)OC)C(=O)NN (stereo unspecified) (Cbz-D(OMe)D(OMe)D(OMe)D(OMe)D(OMe)D(OMe)-NHNH2; configuration not given here)	> 100		> 100	> 100	> 100	> 100	> 100	> 100	> 100	> 100
COC(=O)c1c/c(=N\NC(=O)CC(=O)Nc2ccccc2OC)c2ccccc2o1		> 100	> 100		> 100	> 100		> 100	> 100	> 100
CC1(C)OCC2OC3([C@H]4OC(C)(C)O[C@@H]4CO)OC(C)(C)OC3C2O1 (stereo partly specified)	> 100		> 100	> 100	> 100	> 100	> 100	> 100	> 100	> 100
